# Laboratory results: PubChem BioAssay (NCI)
#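 96-well plates; 48 h exposure; 5 concentrations. Endpoints by linear interpolation between flanking doses. Not reached: highest tested concentration assigned. Here, GI50 denotes the concentration required for 50% inhibition of growth. TGI: concentration producing complete growth inhibition.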
# Tests used:
# Experiment in all cases: growth of human tumour cells (NCI), 48 h
# [1] = system: DLD-1 colon
# [2] = system: KM20L2 colon
# [3] = system: BT-549 breast
# [4] = system: MDA-MB-231 breast
# [5] = system: NCI/ADR-RES ovarian
# [6] = system: PC-3 prostate
# [7] = system: MCF7 breast
SMILES,GI50 [1] [µM],TGI [1] [µM],GI50 [2] [µM],TGI [2] [µM],TGI [3] [µM],TGI [4] [µM],TGI [5] [µM],TGI [6] [µM],GI50 [3] [µM],GI50 [4] [µM],GI50 [5] [µM],GI50 [6] [µM],GI50 [7] [µM],TGI [7] [µM]
CC(=O)[CH-]C(=O)c1ccccc1.CC(=O)[CH-]C(=O)c1ccccc1.CC[O-].CC[O-].[Zr+4],> 100,> 100,> 100,> 100,,,,,,,,,,
Nc1nc(N)c(N=O)c(Nc2ccc(O)cc2)n1,,,,,> 82.9,> 100,> 50.4,> 100,,,,,,
C=C1C(=O)O[C@H]2[C@H]1CC/C(COC(=O)CCCCC(=O)OC/C1=C/CC[C@@]3(C)O[C@H]3[C@H]3OC(=O)C(=C)[C@@H]3CC1)=C\CC[C@@]1(C)O[C@@H]21,,,,,3.36,3.57,> 100,7.46,1.37,1.66,5.45,2.43,,
COc1ccc(N(CC(=O)NCCC[Te]c2ccccc2)C(=O)c2ccccc2)cc1,,,,,8.68,4.76,10.8,12.6,2.39,2.08,3.23,2.68,3.17,10.8
O=C1NN(c2ccc(C(=O)O)cc2)C(=O)/C1=C\c1ccc([N+](=O)[O-])o1,,,,,> 100,> 100,> 100,> 100,> 100,58.5,89.3,> 100,22.4,50.5
Oc1ccc2cc(Br)ccc2c1-c1c(O)ccc2cc(Br)ccc12,,,,,12.4,4.55,9.22,13,3.86,1.76,2.97,3.24,2.49,6.76
COc1ccccc1OCC(=O)Nc1sc2c(c1C(N)=O)CCC2,,,,,> 100,> 100,> 100,,> 100,> 100,> 100,,> 100,> 100
COc1cc2c3c(n(CCCCOC(=O)C(F)(F)F)c(=O)c2cc1OC)-c1cc2c(cc1C3=O)OCO2,,,,,> 100,> 82.2,> 100,> 100,> 100,31.9,> 100,> 100,> 48.8,> 100
Cc1nn(-c2nc3ccccc3s2)c(C)c1Oc1ccccc1O,,,,,25.5,25.9,23.3,> 100,12,10.8,3.6,6.58,4.19,24.6
CC1=CC(=NC(=O)CBr)C=C/C1=N\S(=O)(=O)c1ccccc1,,,,,10.6,6.42,14,13.2,3.15,2.48,3.38,3.17,1.8,4.37
CCOc1c(Br)cc(C2C(C(=O)OC)=CN(C)C=C2C(=O)OC)cc1OC,,,,,> 100,> 100,> 100,> 100,76,32.8,43.6,30,40.6,> 100
COc1cc2nc3sc(C(=O)Nc4ccc(C(=O)OC(C)C)cc4)c(C(=O)Nc4ccc(Cl)cc4C)n3c(=O)c2cc1OC,,,,,20,38.4,> 100,> 100,1.67,11.2,12.4,18.5,14.1,> 100
C[n+]1c(/C=C\c2ccc(Cl)cc2)ccc2ccccc21,,,,,76.4,> 100,> 100,> 100,4.78,38.9,> 100,13.3,20.2,> 100
Cc1cc2c(cc1Cl)SC1=CC(=O)N(c3ccccc3)C1=NS2(=O)=O,,,,,65.3,> 100,> 100,> 100,30,43.7,37.8,37.4,39.4,> 100
Cn1cncc1[C@@](N)(c1ccc(Cl)cc1)c1ccc2c(c1)c(-c1cccc(Cl)c1)cc(=O)n2C,,,,,14.4,14.9,12,7.99,3.16,2.52,2.54,1.47,1.55,13.5
CC(C)=CCC[C@H](C)[C@@H]1CC[C@]2(C)C3CC[C@]4(OC4(C)C)C(CCCO)[C@]3(C)CC[C@@]12C (some centres undefined),,,,,51.7,43.3,59.2,41.1,26,20.5,23.5,18.2,18.1,43.6
Oc1ccccc1-c1nn(CNc2cccc(Cl)c2)c(=S)o1,,,,,> 100,> 100,40,> 100,94.4,60.2,0.371,32.9,37.9,> 100
Cn1cc(C2=C(c3cccc4ccccc34)C(=O)NC2=O)c2ccccc21,,,,,19.7,> 25,> 25,> 25,7.49,8.74,9.59,7.51,5.7,> 25
CCOc1cccc(/C=N/NC(=O)c2ccc(Nc3ccnc(C(F)(F)F)c3)cc2)c1O,,,,,> 85,> 100,> 63.2,> 33.8,1.88,1.7,3.62,0.607,0.7,> 59
COc1ccc2nc(-c3cc(-c4cc(OC)c(OC)c(OC)c4)n[nH]3)[nH]c2c1,,,,,3.31,12.9,> 100,4.1,0.899,2.87,2.91,1.03,2.15,6.66
CC[C@@H](C(=O)[C@@H](C)[C@@H](O)[C@H](C)[C@@H]1O[C@@H]([C@@H](CC)C(=O)O)CC[C@@H]1C)C1O[C@]2(C=CC(=O)[C@]3(CC[C@@](C)([C@H]4CC[C@](O)(CC)[C@H](C)O4)O3)O2)[C@H](C)C[C@@H]1C (some centres undefined),,,,,13.1,6.01,21.1,15.5,0.22,0.854,0.766,0.0665,0.0669,12.8
